These results are taken from US20150359798A1, “PIPERAZINYL DERIVATIVE REDUCES HIGH-FAT DIET-INDUCED ACCUMULATION OF FAT IN THE LIVERS, […]” (priority 2011, published 2015).

Structures can show the parent of a compound that is named as a salt.

In one test the test system is ROCK II. As to the kind of experiment: ROCK II expression in HepG2 cells. The format is cell-based. Conditions: HepG2; for RhoA/ROCK II expression: exogenous GGPP or FPP alone. Here is the method: (§1) HepG2 cells were treated with various concentrations of drugs for 24 hours. Reactions were terminated by washing twice with cold PBS, and the cells were then harvested, Proteins in the whole-cell lysate were homogenized in an ice-cold lysis buffer and a protease inhibitor (Sigma-Aldrich, St. Louis, Mo., U.S.A.). The homogenate was centrifuged at 90, 000 g for 15 minutes at 4° C., and supernatant was recovered as the total cellular protein. Cytosolic and membrane fractions of HepG2 cells were prepared using a. CNM (Cytosol Nuclear Membrane) compartment protein extraction kit (BioChain Institute Inc., Hayward, Calif., U.S.A.) according to the manufacturer's instructions. All of the fractionated protein solutions were stored at -80° C. until analysis. To measure the expression levels of proteins by drugs, the total cell protein was extracted after incubation with treatments for 24 hours and then Western blotting analysis was performed as described previously.

The subject of another test is PPARγ. The test can be described thus: PPARγ expression in HepG2 cells. As to conditions: HepG2; for expression of PPARγ: FPP or GGPP (10 μM) alone. The format is cell-based. As to the method: as §1, with “−80°” for “-80°”
For the next test, the system named is ABCA1. As to the kind of experiment: ABCA1 expression in HepG2 cells. As to conditions: HepG2; for expression of ABCA1: FPP or GGPP (10 μM) alone. Type of test: cell-based. Here is the method:
as §1, with “−80°” for “-80°”

The next test has as its system PDE-5A. As to the kind of experiment: Table 4 PDE-5A (% of control). Type of test: cell-based. As to conditions: control group = 100 (%).
Another test deals with ROCKII. As to the kind of experiment: Table 4 ROCKII (% of control). The format is cell-based. Conditions: control group = 100 (%).
The test system of a further test is Rho-kinase. As to the kind of experiment: Table 3 Rho-kinase (% of control). The format is cell-based. As to conditions: 10 μM; control group = 100 (%).
In test [1] the test system is eNOS. As to the kind of experiment: Table 4 eNOS (% of control). Conditions: control group = 100 (%). The format is cell-based.
In a further test the test system is PPAR-γ. The test can be described thus: Table 3 PPAR-γ (% of control). Type of test: cell-based. As to conditions: 10 μM; control group = 100 (%).
Test [2] has as its system eNOS. The test can be described thus: Table 3 eNOS (% of control). The format is cell-based. Conditions: 10 μM; control group = 100 (%).
For a further test, the system named is p-HSL. The test can be described thus: Table 3 p-HSL (% of control). As to conditions: 10 μM; control group = 100 (%). The format is cell-based.
A further test relates to HMG CoA reductase. The test can be described thus: HMG CoA reductase expression in HepG2 cells (Western blotting). The format is cell-based. As to conditions: HepG2, mevalonate 60, 80, 100 μM. As to the method: The HepG2 hepatoma cell line was purchased from the American Type Culture Collection (ATCC; Manassas, Va., U.S.A.). Cells were cultured in DMEM. The culture media was supplemented with 5% heat-Inactivated FBS, penicillin (100 U/mL) and streptomycin (100 μg/mL). Cells were grown in a humidified atmosphere containing 5% CO2 at 37° C., in which the oxygen tension in the incubator was held at 140 mmHg (20% O2, v/v; normoxic conditions).
as §1, with “−80°” for “-80°”

For another test, the system named is mice fed with HFD. The test can be described thus: HFD-fed mice, 8 weeks, gavage: serum/liver lipids, body weight, food intake. The format is in vivo. As to conditions: HFD mice, 8 weeks, 5 mg/kg. Here is the method:
In the 8 week experiment, C57BL/6J male mice (21-22 g), after fasting, were fed a HFD as a model of hyperlipidemia for 8 weeks. During the 2 month experiments, mice fasted for one night before the experiment was changed from a standard diet (STD) to a HFD and then the mice were randomly divided into 5 groups, including 2 control and 3 treatment groups. Six mice were used in each group. […] Liver from the protection group supplemented with KMUP-1 HCl (1 mg/kg/day) were used to determine the HMG CoA reductase expression.
Within 2 months, the 3 day food intake average for each animal was measured. The weight gain and plasma lipid levels of each group were determined and compared to the non-treatment control group. Mouse blood was collected during the daytime by cardiac puncture followed by centrifugation at 90 g (Benchtop Centrifuge, U.S.A.) to separate the serum, and frozen at −80° C., for biochemical analysis using a Hitachi Clinical Analyzer 7070 (Hitachi High-Technologies Co. Tokyo, Japan). Agents used in the assays were Obtained from Merck & Co. (Kenilworth, N.J., U.S.A.). Triglyceride (TG), total cholesterol, HDL cholesterol and LDL cholesterol in mouse serum were measured by methods used in the clinic. To measure the hepatic TG, isolated liver were cut into small chips.

Where [3] appears, read: simvastatin, KMUP-1, Y27632 10^−5M, C3 exoenzyme.

Take `CC(C)=CCC/C(C)=C/CC/C(C)=C/COP(=O)(O)OP(=O)(O)O` [FPP, farnesyl pyrophosphate, reference compound]: in the test with ROCK II, the “RhoA/ROCK II expression” value is listed as “increased”. Also, in the test on PPARγ, the “expression of PPARγ” value is given as “suppressed”. Also, in the test with ABCA1, the “expression of ABCA1” value is given as “suppressed”.
For `CC(C)=CCC/C(C)=C/CC/C(C)=C/CC/C(C)=C/COP(=O)(O)OP(=O)(O)O` [GGPP, geranylgeranyl pyrophosphate, reference compound], the “RhoA/ROCK II expression” value in the test on ROCK II was “increased”. In addition, in the test on PPARγ, the “expression of PPARγ” value is “suppressed”. Besides, the “expression of ABCA1” value with ABCA1 is reported as “suppressed”.
`COc1ccccc1N1CCN(CCn2cnc3c2c(=O)n(C)c(=O)n3C)CC1` [KMUP-2 HCl]: the PDE-5A with PDE-5A was 68.8 ± 5.3%. Besides, the ROCKII in the test with ROCKII came out at 40.8 ± 3.7%.
As for `COc1ccccc1N1CCN(CCn2cnc3c2c(=O)n(C)c(=O)n3C)CC1` [KMUP-2, 7-[2-[4-(2-methoxybenzene)piperazinyl]ethyl]-1,3-dimethylxanthine], in the test with Rho-kinase, the Rho-kinase is on record as 81.9 ± 8.2%.
In turn, `Cl.Cn1c(=O)c2c(ncn2CCN2CCN(c3ccc([N+](=O)[O-])cc3)CC2)n(C)c1=O` [KMUP-3 HCl, 7-[2-[4-(4-nitrobenzene)piperazinyl]ethyl]-1,3-dimethyl xanthine HCl complex] had an eNOS in the test with eNOS [1] of 148.31 ± 7.5%. Also, in the test with PDE-5A, the PDE-5A was 63.6 ± 5.2%. In addition, the ROCKII in the test with ROCKII stood at 44.5 ± 2.9%.
On to `Cn1c(=O)c2c(ncn2CCN2CCN(c3ccccc3[N+](=O)[O-])CC2)n(C)c1=O` [KMUP-3, 7-[2-[4-(2-nitrobenzene)piperazinyl]ethyl]-1,3-dimethylxanthine], for which the PPAR-γ in the test on PPAR-γ turned out to be 140.8 ± 15.7%. The same molecule registered an eNOS with eNOS [2] of 131.5 ± 13.7%. Besides, in the test with Rho-kinase, the Rho-kinase is reported as 79.4 ± 6.9%. In addition, the p-HSL in the test with p-HSL is on record as 138.2 ± 14.4%.
With `Cn1c(=O)c2c(ncn2CCN2CCN(c3ccccc3[N+](=O)[O-])CC2)n(C)c1=O` [KMUP-4 HCl], the eNOS in the test with eNOS [1] was found to be 135.24 ± 7.5%. The same molecule showed a PDE-5A in the test with PDE-5A of 73.4 ± 3.4%. This molecule also came in with an ROCKII with ROCKII of 37.6 ± 2.8%.
Take `Cn1c(=O)c2c(ncn2CCN2CCN(c3ccccc3[N+](=O)[O-])CC2)n(C)c1=O` [KMUP-4, 7-[2-[4-(2-nitrobenzene)piperazinyl]ethyl]-1,3-dimethylxanthine]: in the test with PPAR-γ, the PPAR-γ is 143.7 ± 11.3%. In addition, in the test on eNOS [2], the eNOS stood at 125.6 ± 13.6%. The Rho-kinase in the test on Rho-kinase was found to be 83.7 ± 7.5%. The molecule also showed a p-HSL in the test on p-HSL of 136.5 ± 12.6%.
For the molecule `Nc1nc2c(nc(Sc3ccc(Cl)cc3)n2[C@@H]2O[C@@H]3CO[P@@](=O)(S)O[C@H]3[C@H]2O)c(=O)[nH]1` [Rp-8-pCPT-cGMPS, 8-(p-chloro-phenylthio)guanosine-3,5-monophosphorothioate], the “ROCK II expression” value with ROCK II (10 μM cGMP antagonist) is given as “increased”.
Take `C[C@@H](N)[C@H]1CC[C@H](C(=O)Nc2ccncc2)CC1` [Y27632, reference compound]: the “ROCK II expression” value in the test on ROCK II (C3 exoenzyme 5 μg/ml, Y27632 10 μM) is recorded as “reduced”. In addition, the “PPARγ expression (FIG. 24C)” value in the test on PPARγ (setting [3]) is on record as “increased”. Moreover, the “ABCA1 expression (FIG. 24D)” value in the test on ABCA1 (setting [3]) is “increased”.
For the molecule `CC(O)(CCO)CC(=O)O` (stereo not shown) [mevalonate, reference compound], in the test with HMG CoA reductase, the “HMG CoA reductase expression” value is given as “concentration-dependently reduced”.
`CCC(C)(C)C(=O)O[C@H]1C[C@@H](C)C=C2C=C[C@H](C)[C@H](CC[C@@H]3C[C@@H](O)CC(=O)O3)[C@H]21` [simvastatin, reference compound]: in the test on mice fed with HFD, the HDL cholesterol was determined as 103.2 ± 2.5 mg/dL, the LDL cholesterol is 15.3 ± 1.3 mg/dL, the TG in serum amounted to 82.7 ± 6.3 mg/dL and the TG of liver is listed as 34.5 ± 2.** mg/dl. In the test on mice fed with HFD, the “Tot. chol. (total cholesterol)” value amounted to 133.7 ± 4.3 mg/dL and the “final BW (Body weight)” value is listed as 23.9 ± 0.9 g.
